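Values below derive from 48-hour exposures of cells grown in 96-well plates, with endpoints linearly interpolated between the two concentrations bracketing the appropriate inhibition level. The concentration for 50% growth inhibition is given as GI50. TGI marks complete inhibition of growth.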
Key:
Test in all cases: inhibition of tumour cell growth, NCI panel, 48 h
786-0 renal = system: 786-0 renal
A498 renal = system: A498 renal
A549 NSCLC = system: A549 NSCLC
ACHN renal = system: ACHN renal
BT-549 breast = system: BT-549 breast
CAKI-1 renal = system: CAKI-1 renal
COLO 205 colon = system: COLO 205 colon
DU-145 prostate = system: DU-145 prostate
HCC-2998 colon = system: HCC-2998 colon
HCT-116 colon = system: HCT-116 colon
HCT-15 colon = system: HCT-15 colon
HOP-92 NSCLC = system: HOP-92 NSCLC
HS 578T breast = system: HS 578T breast
K-562 leukemia = system: K-562 leukemia
LOX IMVI melanoma = system: LOX IMVI melanoma
M14 melanoma = system: M14 melanoma
MDA-MB-231 breast = system: MDA-MB-231 breast
MDA-MB-435 = system: MDA-MB-435
MOLT-4 leukemia = system: MOLT-4 leukemia
NCI-H226 lung = system: NCI-H226 lung
NCI-H23 lung = system: NCI-H23 lung
NCI-H460 lung = system: NCI-H460 lung
NCI/ADR-RES ovarian = system: NCI/ADR-RES ovarian
OVCAR-3 ovarian = system: OVCAR-3 ovarian
OVCAR-5 ovarian = system: OVCAR-5 ovarian
OVCAR-8 ovarian = system: OVCAR-8 ovarian
PC-3 prostate = system: PC-3 prostate
RXF 393 renal = system: RXF 393 renal
SF-268 CNS = system: SF-268 CNS
SF-295 CNS = system: SF-295 CNS
SF-539 CNS = system: SF-539 CNS
SK-MEL-2 melanoma = system: SK-MEL-2 melanoma
SK-MEL-28 melanoma = system: SK-MEL-28 melanoma
SK-MEL-5 melanoma = system: SK-MEL-5 melanoma
SK-OV-3 ovarian = system: SK-OV-3 ovarian
SN12C renal = system: SN12C renal
SNB-19 CNS = system: SNB-19 CNS
SW-620 colon = system: SW-620 colon
T-47D breast = system: T-47D breast
U251 CNS = system: U251 CNS
UACC-257 melanoma = system: UACC-257 melanoma
UACC-62 melanoma = system: UACC-62 melanoma
UO-31 renal = system: UO-31 renal
EKVX NSCLC = system: EKVX NSCLC
HL-60(TB) leukemia = system: HL-60(TB) leukemia
HOP-62 NSCLC = system: HOP-62 NSCLC
HT29 colon = system: HT29 colon
IGROV1 ovarian = system: IGROV1 ovarian
KM12 colon = system: KM12 colon
MCF7 breast = system: MCF7 breast
NCI-H522 lung = system: NCI-H522 lung
OVCAR-4 ovarian = system: OVCAR-4 ovarian
RPMI-8226 leukemia = system: RPMI-8226 leukemia
SNB-75 CNS = system: SNB-75 CNS
SR leukemia = system: SR leukemia
TK-10 renal = system: TK-10 renal

With O=C(/C=C/c1ccccc1)CCC1C(=O)NC(=S)NC1=O the TGI (786-0 renal) was > 100 µM, the TGI (A498 renal) was > 100 µM and the TGI (A549 NSCLC) was > 100 µM. For the same compound, the TGI (ACHN renal) was > 100 µM, the TGI (BT-549 breast) was > 100 µM and the TGI (CAKI-1 renal) was > 100 µM. For the same compound, the TGI (COLO 205 colon) was > 100 µM, the TGI (DU-145 prostate) was > 100 µM and the TGI (HCC-2998 colon) was > 100 µM. For the same compound, the TGI (HCT-116 colon) was > 100 µM, the TGI (HCT-15 colon) was > 100 µM and the TGI (HOP-92 NSCLC) was > 100 µM. The TGI (HS 578T breast) was > 100 µM, the TGI (K-562 leukemia) was > 100 µM and the TGI (LOX IMVI melanoma) was > 100 µM. The TGI (M14 melanoma) was > 100 µM, the TGI (MDA-MB-231 breast) was > 100 µM and the TGI (MDA-MB-435) was > 100 µM. The TGI (MOLT-4 leukemia) was > 100 µM, the TGI (NCI-H226 lung) was > 100 µM and the TGI (NCI-H23 lung) was > 100 µM. For the same compound, the TGI (NCI-H460 lung) was > 100 µM, the TGI (NCI/ADR-RES ovarian) was > 100 µM and the TGI (OVCAR-3 ovarian) was > 100 µM. For the same compound, the TGI (OVCAR-5 ovarian) was > 100 µM, the TGI (OVCAR-8 ovarian) was > 100 µM and the TGI (PC-3 prostate) was > 100 µM. The TGI (RXF 393 renal) was > 100 µM, the TGI (SF-268 CNS) was > 100 µM and the TGI (SF-295 CNS) was > 100 µM. For the same compound, the TGI (SF-539 CNS) was > 100 µM, the TGI (SK-MEL-2 melanoma) was > 100 µM and the TGI (SK-MEL-28 melanoma) was > 100 µM. For the same compound, the TGI (SK-MEL-5 melanoma) was > 100 µM, the TGI (SK-OV-3 ovarian) was > 100 µM and the TGI (SN12C renal) was > 100 µM. The TGI (SNB-19 CNS) was > 100 µM, the TGI (SW-620 colon) was > 100 µM and the TGI (T-47D breast) was > 100 µM. For the same compound, the TGI (U251 CNS) was > 100 µM, the TGI (UACC-257 melanoma) was > 100 µM and the TGI (UACC-62 melanoma) was > 100 µM. For the same compound, the TGI (UO-31 renal) was > 100 µM.

For CCOC(=O)c1c(C)n(Cc2ccccc2)c2c1cc1oc(=O)c(=O)n3cnc2c13, the GI50 (786-0 renal) was 13.7 µM, the TGI (786-0 renal) was > 50 µM and the GI50 (A498 renal) was 11 µM. It also gave a TGI (A498 renal) of 49.8 µM, a GI50 (A549 NSCLC) of 13.6 µM and a TGI (A549 NSCLC) of 45.7 µM. For the same compound, the GI50 (ACHN renal) was 9.91 µM, the TGI (ACHN renal) was 39.9 µM and the GI50 (BT-549 breast) was 16.2 µM. The TGI (BT-549 breast) was 34.2 µM, the GI50 (CAKI-1 renal) was 14.7 µM and the TGI (CAKI-1 renal) was 48.8 µM. For the same compound, the GI50 (COLO 205 colon) was 12.8 µM, the TGI (COLO 205 colon) was 30.6 µM and the GI50 (DU-145 prostate) was 11.8 µM. For the same compound, the TGI (DU-145 prostate) was > 50 µM, the GI50 (EKVX NSCLC) was 13 µM and the TGI (EKVX NSCLC) was 39.7 µM. The GI50 (HCT-116 colon) was 7.36 µM, the TGI (HCT-116 colon) was 15.3 µM and the GI50 (HCT-15 colon) was 16.2 µM. For the same compound, the TGI (HCT-15 colon) was > 50 µM, the GI50 (HL-60(TB) leukemia) was 14.5 µM and the TGI (HL-60(TB) leukemia) was > 50 µM. The GI50 (HOP-62 NSCLC) was 29.4 µM, the TGI (HOP-62 NSCLC) was > 50 µM and the GI50 (HOP-92 NSCLC) was 2.83 µM. For the same compound, the TGI (HOP-92 NSCLC) was 20.1 µM, the GI50 (HS 578T breast) was 34.3 µM and the TGI (HS 578T breast) was > 50 µM. For the same compound, the GI50 (HT29 colon) was 18.3 µM, the TGI (HT29 colon) was > 50 µM and the GI50 (IGROV1 ovarian) was 28.1 µM. The TGI (IGROV1 ovarian) was > 50 µM, the GI50 (K-562 leukemia) was 12.9 µM and the TGI (K-562 leukemia) was > 50 µM. The GI50 (KM12 colon) was 19.2 µM, the TGI (KM12 colon) was > 50 µM and the GI50 (LOX IMVI melanoma) was 8.74 µM. The TGI (LOX IMVI melanoma) was 22.3 µM, the GI50 (M14 melanoma) was 18.3 µM and the TGI (M14 melanoma) was > 50 µM. For the same compound, the GI50 (MCF7 breast) was 17.7 µM, the TGI (MCF7 breast) was > 50 µM and the GI50 (MDA-MB-231 breast) was 13 µM. For the same compound, the TGI (MDA-MB-231 breast) was > 50 µM, the GI50 (MDA-MB-435) was 10.7 µM and the TGI (MDA-MB-435) was 32.9 µM. For the same compound, the GI50 (MOLT-4 leukemia) was 8.47 µM, the TGI (MOLT-4 leukemia) was > 50 µM and the GI50 (NCI-H226 lung) was 20.3 µM. The TGI (NCI-H226 lung) was > 50 µM, the GI50 (NCI-H23 lung) was 14.4 µM and the TGI (NCI-H23 lung) was > 50 µM. The GI50 (NCI-H460 lung) was 15.9 µM, the TGI (NCI-H460 lung) was > 50 µM and the GI50 (NCI-H522 lung) was > 50 µM. The TGI (NCI-H522 lung) was > 50 µM, the GI50 (NCI/ADR-RES ovarian) was 18.5 µM and the TGI (NCI/ADR-RES ovarian) was > 50 µM. It also gave a GI50 (OVCAR-3 ovarian) of 12.3 µM, a TGI (OVCAR-3 ovarian) of 34.7 µM and a GI50 (OVCAR-4 ovarian) of 19.8 µM. For the same compound, the TGI (OVCAR-4 ovarian) was > 50 µM, the GI50 (OVCAR-5 ovarian) was 36.9 µM and the TGI (OVCAR-5 ovarian) was > 50 µM. The GI50 (OVCAR-8 ovarian) was 22.8 µM, the TGI (OVCAR-8 ovarian) was > 50 µM and the GI50 (PC-3 prostate) was 10.3 µM. The TGI (PC-3 prostate) was > 50 µM, the GI50 (RPMI-8226 leukemia) was 1.86 µM and the TGI (RPMI-8226 leukemia) was 14.1 µM. For the same compound, the GI50 (RXF 393 renal) was 16 µM, the TGI (RXF 393 renal) was > 50 µM and the GI50 (SF-268 CNS) was 15.3 µM. For the same compound, the TGI (SF-268 CNS) was > 50 µM, the GI50 (SF-295 CNS) was 16.2 µM and the TGI (SF-295 CNS) was > 50 µM. For the same compound, the GI50 (SF-539 CNS) was 14.5 µM, the TGI (SF-539 CNS) was 37.8 µM and the GI50 (SK-MEL-2 melanoma) was > 50 µM. For the same compound, the TGI (SK-MEL-2 melanoma) was > 50 µM, the GI50 (SK-MEL-28 melanoma) was 40.4 µM and the TGI (SK-MEL-28 melanoma) was > 50 µM. The GI50 (SK-MEL-5 melanoma) was 10.4 µM, the TGI (SK-MEL-5 melanoma) was 26.7 µM and the GI50 (SK-OV-3 ovarian) was > 50 µM. For the same compound, the TGI (SK-OV-3 ovarian) was > 50 µM, the GI50 (SN12C renal) was 10.4 µM and the TGI (SN12C renal) was 24.9 µM. For the same compound, the GI50 (SNB-19 CNS) was 42.4 µM, the TGI (SNB-19 CNS) was > 50 µM and the GI50 (SNB-75 CNS) was 28.5 µM. For the same compound, the TGI (SNB-75 CNS) was > 50 µM, the GI50 (SR leukemia) was 7.99 µM and the TGI (SR leukemia) was > 50 µM. The GI50 (SW-620 colon) was 14.1 µM, the TGI (SW-620 colon) was 34.7 µM and the GI50 (TK-10 renal) was 15.7 µM. The TGI (TK-10 renal) was 42.6 µM, the GI50 (U251 CNS) was 12 µM and the TGI (U251 CNS) was > 50 µM. It also gave a GI50 (UACC-257 melanoma) of 17 µM, a TGI (UACC-257 melanoma) of 48.3 µM and a GI50 (UACC-62 melanoma) of 16.6 µM. For the same compound, the TGI (UACC-62 melanoma) was > 50 µM, the GI50 (UO-31 renal) was 25.6 µM and the TGI (UO-31 renal) was > 50 µM.
